Common to all, as to assay type: cell membranes
Test [1] addresses Neuronal acetylcholine receptor; alpha4/beta2 (Rattus norvegicus, UniProt P09483+P12390). The test can be described thus: Displacement of [3H]epibatidine from alpha-4-beta-2 nAchR in rat brain cortex membrane. (In general: Loss of bound radioactivity is the signal in a displacement assay; it reports binding, not function.)
Test [2] has as its target Neuronal acetylcholine receptor subunit alpha-7 (Rattus norvegicus, UniProt Q05941). Briefly: Displacement of [125I]alpha-Bungarotoxin from alpha-7 nAchR in rat brain cortex membrane.
Test [3] concerns the target T1, Adrenergic receptor alpha-2 (Rattus norvegicus, UniProt P22086+P19328+P22909).
T1 sequence (P22086 whole entry): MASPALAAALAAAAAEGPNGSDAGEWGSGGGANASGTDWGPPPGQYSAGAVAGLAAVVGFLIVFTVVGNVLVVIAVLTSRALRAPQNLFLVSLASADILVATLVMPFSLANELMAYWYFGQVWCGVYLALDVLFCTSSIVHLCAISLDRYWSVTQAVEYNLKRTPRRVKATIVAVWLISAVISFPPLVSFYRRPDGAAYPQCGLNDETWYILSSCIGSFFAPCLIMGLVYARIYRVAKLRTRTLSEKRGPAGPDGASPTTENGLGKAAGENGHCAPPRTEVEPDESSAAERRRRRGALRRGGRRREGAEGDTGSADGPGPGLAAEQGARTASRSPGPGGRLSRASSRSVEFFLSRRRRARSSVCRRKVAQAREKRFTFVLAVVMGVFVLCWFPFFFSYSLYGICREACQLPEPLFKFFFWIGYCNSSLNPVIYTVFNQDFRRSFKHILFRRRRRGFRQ
T1 sequence (P19328 whole entry): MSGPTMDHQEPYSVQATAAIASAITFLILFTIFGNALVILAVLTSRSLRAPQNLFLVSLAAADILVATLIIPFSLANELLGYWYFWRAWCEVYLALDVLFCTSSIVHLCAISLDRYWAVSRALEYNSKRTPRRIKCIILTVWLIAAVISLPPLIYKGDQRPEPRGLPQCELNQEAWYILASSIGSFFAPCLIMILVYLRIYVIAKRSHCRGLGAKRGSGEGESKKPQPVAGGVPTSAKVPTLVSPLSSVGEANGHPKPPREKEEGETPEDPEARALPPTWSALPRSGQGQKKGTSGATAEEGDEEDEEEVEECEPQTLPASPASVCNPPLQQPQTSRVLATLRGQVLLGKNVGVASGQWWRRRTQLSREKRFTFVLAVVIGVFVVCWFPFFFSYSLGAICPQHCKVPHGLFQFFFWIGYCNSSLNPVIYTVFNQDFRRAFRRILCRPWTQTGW
T1 sequence (P22909 whole entry): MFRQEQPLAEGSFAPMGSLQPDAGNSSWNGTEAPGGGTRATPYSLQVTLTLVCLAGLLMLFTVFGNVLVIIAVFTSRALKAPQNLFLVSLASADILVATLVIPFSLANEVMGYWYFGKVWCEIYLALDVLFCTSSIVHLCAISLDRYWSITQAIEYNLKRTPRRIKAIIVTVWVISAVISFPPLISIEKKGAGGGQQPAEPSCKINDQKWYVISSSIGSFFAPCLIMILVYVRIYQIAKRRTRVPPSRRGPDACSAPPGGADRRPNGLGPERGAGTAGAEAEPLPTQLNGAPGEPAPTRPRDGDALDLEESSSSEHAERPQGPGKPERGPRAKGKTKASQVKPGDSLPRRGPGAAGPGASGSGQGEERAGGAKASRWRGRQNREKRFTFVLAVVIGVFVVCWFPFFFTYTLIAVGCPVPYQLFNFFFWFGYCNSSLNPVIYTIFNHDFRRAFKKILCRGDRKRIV
The test can be described thus: Displacement of [3H]RS 79948-197 from alpha-2 adrenergic receptor in rat brain cortex membrane.

Molecules are shown by their SMILES.

Neuronal acetylcholine receptor subunit alpha-7, sequence (Q05941 whole entry): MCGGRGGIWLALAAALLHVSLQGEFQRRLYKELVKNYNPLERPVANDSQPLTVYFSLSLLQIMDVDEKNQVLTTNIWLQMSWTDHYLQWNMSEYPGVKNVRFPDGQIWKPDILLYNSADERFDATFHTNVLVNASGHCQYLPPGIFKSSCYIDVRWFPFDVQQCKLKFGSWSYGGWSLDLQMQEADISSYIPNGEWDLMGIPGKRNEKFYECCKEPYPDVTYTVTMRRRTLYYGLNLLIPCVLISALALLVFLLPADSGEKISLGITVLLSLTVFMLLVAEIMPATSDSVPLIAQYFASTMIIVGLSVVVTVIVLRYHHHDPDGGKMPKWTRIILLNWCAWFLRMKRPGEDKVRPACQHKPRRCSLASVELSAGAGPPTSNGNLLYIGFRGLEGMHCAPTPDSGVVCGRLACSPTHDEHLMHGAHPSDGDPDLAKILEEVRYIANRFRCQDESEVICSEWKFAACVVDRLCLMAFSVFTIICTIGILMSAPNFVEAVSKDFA
Neuronal acetylcholine receptor; alpha4/beta2, sequence (P09483 whole entry): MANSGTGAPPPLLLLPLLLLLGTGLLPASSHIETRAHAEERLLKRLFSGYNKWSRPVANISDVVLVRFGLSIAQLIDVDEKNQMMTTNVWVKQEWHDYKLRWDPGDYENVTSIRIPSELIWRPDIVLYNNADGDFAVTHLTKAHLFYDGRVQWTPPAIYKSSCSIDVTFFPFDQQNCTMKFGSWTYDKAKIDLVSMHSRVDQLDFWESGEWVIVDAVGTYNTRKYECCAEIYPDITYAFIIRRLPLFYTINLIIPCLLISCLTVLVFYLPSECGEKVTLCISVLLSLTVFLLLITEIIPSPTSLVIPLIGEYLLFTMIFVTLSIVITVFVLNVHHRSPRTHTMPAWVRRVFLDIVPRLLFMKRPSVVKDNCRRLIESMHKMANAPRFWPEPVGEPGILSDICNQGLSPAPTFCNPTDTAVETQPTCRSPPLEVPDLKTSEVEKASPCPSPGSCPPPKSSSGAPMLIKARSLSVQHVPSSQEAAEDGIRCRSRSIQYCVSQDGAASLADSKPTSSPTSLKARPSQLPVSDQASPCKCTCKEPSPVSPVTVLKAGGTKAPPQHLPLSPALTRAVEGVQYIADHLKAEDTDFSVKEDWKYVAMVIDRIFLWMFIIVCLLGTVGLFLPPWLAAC
Neuronal acetylcholine receptor; alpha4/beta2, sequence (P12390 whole entry): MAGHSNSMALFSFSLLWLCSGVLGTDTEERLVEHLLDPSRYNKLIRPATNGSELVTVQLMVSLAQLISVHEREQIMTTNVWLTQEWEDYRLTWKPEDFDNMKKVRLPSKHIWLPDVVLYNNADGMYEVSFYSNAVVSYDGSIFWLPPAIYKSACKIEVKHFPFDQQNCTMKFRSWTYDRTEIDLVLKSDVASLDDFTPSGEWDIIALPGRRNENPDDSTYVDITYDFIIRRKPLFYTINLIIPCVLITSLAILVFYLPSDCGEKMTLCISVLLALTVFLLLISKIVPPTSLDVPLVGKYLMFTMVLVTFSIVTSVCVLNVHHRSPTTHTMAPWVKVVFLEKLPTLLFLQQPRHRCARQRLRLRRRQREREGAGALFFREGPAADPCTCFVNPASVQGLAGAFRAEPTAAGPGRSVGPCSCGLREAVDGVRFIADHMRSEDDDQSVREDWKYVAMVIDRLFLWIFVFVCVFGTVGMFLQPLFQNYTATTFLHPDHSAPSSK

With `CN1CCC[C@H]1[C@H]1CNC(=O)O1`, the figures for the Ki in test [1] and in test [2] were 35 µM and 100 µM, respectively.
In the same order, the values of `CN1CCC[C@@H]1[C@@H]1CNC(=O)O1` are 37 µM and 43 µM.
On to `CN1CCC[C@H]1[C@H]1COc2ccccc2O1.Cl`, for which the Ki (in general, a dissociation constant, usually derived from enzyme kinetics or from competition with a known ligand) came out at 0.47 µM in test [1], 14.6 µM in test [2] and 1.67 µM in test [3].
On the same counts, the results for `CN1CCC[C@@H]1[C@@H]1COc2ccccc2O1.Cl` are 43.8 µM, 14.8 µM and 6.67 µM.
In the same order, the values of `Cl.c1ccc2c(c1)OC[C@@H]([C@H]1CCCN1)O2` are 11.6 µM, 27 µM and 6.33 µM.
Turning to `CN1CCC[C@@H]1[C@H]1CNC(=O)O1`, the figures for the Ki in test [1] and in test [2] were 40 µM and 100 µM, respectively.
As to `Cl.c1ccc2c(c1)OC[C@H]([C@H]1CCCN1)O2`, the values for the Ki in test [1], in test [2] and in test [3] were 88 µM, 14.7 µM and 14 µM, respectively.
For `CN1CCC[C@H]1[C@@H]1COc2ccccc2O1`, the Ki in test [1] was determined as 0.26 µM; in test [2], 21 µM.
In the case of `CN1CCC[C@@H]1[C@H]1COc2ccccc2O1`, the Ki came to 12.5 µM in test [1] and 35 µM in test [2].
As for `Cl.c1ccc2c(c1)OC[C@H]([C@@H]1CCCN1)O2`, the Ki in test [1] was found to be 14.4 µM; in test [2], 32.2 µM; in test [3] it was 0.64 µM.
For `CN1CCC[C@H]1[C@@H]1CNC(=O)O1`, the figures for the Ki in test [1] and in test [2] were 2.7 µM and 21 µM, respectively.
Regarding `Cl.c1ccc2c(c1)OC[C@@H]([C@@H]1CCCN1)O2`, the figures for the inhibitory constant (Ki) in test [1], in test [2] and in test [3] were 2.1 µM, 36 µM and 1.35 µM, respectively.

For the origin of these results see ChEMBL document CHEMBL1143264 (Bioorg Med Chem Lett, 2009).
